Measured values: patent US12545668B2, “Cyclic amine derivative as agent for promoting advillin function, and novel cyclic amine derivative and pharmaceutical use thereof” (Toray Industries, Inc., priority 2018, dated 2026)

What was measured:
[1] = tested on: sciatic nerve of a rat spinal nerve ligation model; assay: Actin filament/actin monomer ratio in the sciatic nerve of rat spinal nerve ligation model; type: in vivo
From the text: The effect of the cyclic amine derivative (I) or a pharmacologically acceptable salt thereof on a ratio between the amount of actin filaments and the amount of actin monomers in the sciatic nerve of a rat spinal nerve ligation model was examined.
Male SD rats (manufactured by Charles River Laboratories Japan, Inc.) of 6 weeks old were used. Each rat spinal nerve ligation model was produced by resecting the spine vertebral arch by incision of the right lower back under isoflurane inhalation anesthesia, completely ligating L5 and L6 nerve roots of the spinal nerve, and then suturing the muscular layer and the skin. As a negative control (sham-operation group), the right L5 and L6 nerves were exposed, and then the muscular layer and the skin were sutured similarly without ligation. One week after the nerve ligation, the rats were used to perform the following experiment. […]
For quantitative determination of actin filaments and actin monomers, G-actin/F-actin in vivo assay kit (manufactured by Cytoskeleton Inc.) was used. […] The amount of actin in each of the actin monomer sample and the actin filament sample was measured by Western blotting. […] Luminescence intensity of a band corresponding to actin was quantitatively determined using Image Lab software (manufactured by Bio-Rad). […]

[2] = tested on: F11 cells (rat dorsal root ganglion neuron cell line); assay: Effect of decreasing intracellular actin filaments in F11 cells with oxaliplatin-induced axonal injury (phalloidin staining); type: cell-based; details: F-11 rat/mouse fusion cell line, F11, 120 h, compound 10 μM with oxaliplatin 15 μM, 5 days; compared to oxaliplatin alone treated group; average of five samples; read-out: Decreasing Rate of Intracellular Actin Filament (%)
From the text: The effect of the cyclic amine derivative (I) or a pharmacologically acceptable salt thereof on the amount of intracellular actin filaments in F11 cells (rat dorsal root ganglion neuron cell line) was examined.
As test compounds, the compounds of Examples 1, 2, 3, 4, 5, 6, 7, 8, and 9 were used.
As compounds of comparative examples, 1-(4-(dimethylamino)piperidin-1-yl)-3-(1-ethyl-1H-imidazol-2-yl)-3-hydroxypropan-1-one (hereinafter, the compound of Comparative Example 1), 1-(4-(dimethylamino)piperidin-1-yl)-3-hydroxy-3-(1-(2,2,2-trifluoroethyl)-1H-imidazol-2-yl)propan-1-one (hereinafter, the compound of Comparative Example 2), 1-((R)-3-(dimethylamino)pyrrolidin-1-yl)-3-hydroxy-3-(1-methyl-1H-imidazol-2-yl)propan-1-one (hereinafter, the compound of Comparative Example 3), and 1-((R)-[…]-3-hydroxy-3-(1-methyl-1H-imidazol-2-yl)propan-1-one (hereinafter, the compound of Comparative Example 4) shown in Table 4 were used. The compounds of Comparative Examples 1, 2, 3, and 4 were synthesized in accordance with methods described in International Publication No. WO2016/136944.
For peeling the F11 cells off from a culture flask, 0.25% Trypsin/EDTA (manufactured by Thermo Fisher Scientific K.K.) was added to the cells, followed by incubation at room temperature for several minutes. Thereafter, 10% fetal bovine serum-containing DMEM medium (manufactured by Thermo Fisher Scientific K.K.) was added thereto for suspension, and the resultant centrifuged at 1,500 rpm for 1 minute. After removing the resultant centrifugal supernatant, 0.5% fetal bovine serum-containing DMEM medium was added thereto for suspending cells therein, and the resultant seeded in a poly-D-lysine-coated 96 well plate (manufactured by BD Biosciences) coated with laminin (2 μg/cm^2, manufactured by Sigma Aldrich) to be cultured at 37° C. under an environment of 5% CO2. Two hours after seeding the cells, N,N-dibutyladenosine 3′,5′-phosphate (final concentration 1 mM, manufactured by Sigma Aldrich) and recombinant rat GDNF (final concentration 50 ng/mL, manufactured by PeproTech) were added thereto to culture the cells at 37° C. under an environment of 5% CO2 for 7 days for differentiation.
Seven days after starting the culture, the medium was exchanged with 0.5% fetal bovine serum-containing DMEM medium containing oxaliplatin (final concentration 15 μM), and the resultant cultured for 5 days to induce axonal injury. Each of the compounds of Examples and Comparative Examples was caused to be contained in the medium (final concentration 10 μM) for treatment in the same manner as oxaliplatin.
Five days after treatment with oxaliplatin and each of the compounds, the resultant cells were washed with PBS(−) three times, a 4% paraformaldehyde-phosphate buffer (manufactured by Wako Pure Chemical Industries Ltd.) was added thereto, and the resultant allowed to stand still at room temperature for 10 minutes to fix the cells. Acti-stain 670 phalloidin (manufactured by Cytoskeleton Inc.) was added thereto, and the resultant incubated at room temperature for 30 minutes to stain actin filaments. An image of the cells was acquired using IN Cell Analyzer 2200 (manufactured by GE Healthcare), and the image analyzed using IN Cell Investigator Developer Toolbox. The amount of intracellular actin filaments was indicated by the amount of fluorescence (density) of fluorescent-labeled phalloidin binding to the actin filaments.
In a group treated with oxaliplatin alone (hereinafter, the oxaliplatin alone treated group), the amount of intracellular actin filaments increased by 5% compared to that in a group not treated with oxaliplatin. […] A decreasing rate of intracellular actin filaments, caused by each compound compared to the amount of intracellular actin filaments of the oxaliplatin alone treated group was calculated. […]

CN(C)C1CCN(C(=O)C[C@H](O)c2nccn2C)CC1 [Example 7, (S)-1-(4-(dimethylamino)piperidin-1-yl)-3-hydroxy-3-(1-methyl-1H-imidazol-2-yl)propan-1-one]
actin filament/actin monomer ratio compared to the distilled water administration group ([1]; oral 60 mg/kg once a day for 2 days, sciatic nerve, p<0.025 Williams): significantly reduced
actin filament/actin monomer ratio ([1]; oral 6, 20 and 60 mg/kg once a day for 2 days, sciatic nerve 3 hours after last administration, FIG. 3b): reduced as the dose of the compound of Example 7 was increased
inhibition at 10 µM [2]: ≥ 5%
